For test [1] the following is noted: IIH patients, cited from earlier work; for visual field grades: no significant difference between groups.
The nature of test [2]: Clinical observation of ICP in IIH patients treated with diuretics. The format is in vivo.
Test [3] relates to Na^+K^+ATPase. The settings on record: literature refs 10, 13-15; cited from earlier work.
Test [4] relates to Na^+K^+ATPase. In words: Na+K+ATPase activity assay in CPe cells. It counts as cell-based, rat. As for the experimental part: (§1) Choroid plexus tissue from lateral and fourth ventricles were dissected and incubated with 0.25% trypsin solution for 2.5 hours at 4° C. followed by 30 minutes at 37° C. Trypsin digestion was stopped by the addition of newborn calf serum and the cell suspension was centrifuged at 20 g for 10 minutes. Cells were resuspended in DMEM/F12 supplemented with 10% FBS, 1% penicillin/streptomycin, 4 mM L-glutamine, 200 ng/ml hydrocortisone, 5 ng/ml sodium selenite and 10 ng/ml EGF. 20 μM cytosine arabinoside was used for the first 4 days in culture to limit the growth of fibroblasts (Gath et al., 1997). Initially the cells were seeded onto a laminin coated 6 well plate and allowed to grow for 2 days before being transferred to laminin coated 96 well plates or 12 well inserts (Greiner Bio-One Ltd). On day 4 the media was replaced with DMEM/F12 supplemented with 10% FBS and 1% penicillin/streptomycin and changed every 2-3 days. After reaching confluency, CPe cells were serum deprived for 3 days prior to the beginning of the studies (between days 10-14).
The effect of Exendin-4 on Na^+K^+ATPase activity in the choroid plexus was evaluated by the colorimetric measurement of phosphate released from ATP with the use of a phosphate assay kit (ab65622, Abcam); with Na^+K^+ATPase activity being defined as the portion of phosphate produced that is sensitive to Ouabain. CPe cells were incubated with aCSF for 1 hour at 37° C. before incubation in aCSF containing; 100 nM Exendin-4 (n=7), 5 μM PKI-16-22-amide (n=8), 100 nM Exendin-4+5 μM PKI-16-22-amide (n=8); in the presence and absence of 1 mM Ouabain for 30 minutes at 37° C. The cells were then lysed on ice and spun at 13,000 g to remove cell debris. Phosphate was measured as per the manufacturer's instructions. Briefly the samples were added to the reaction mix and incubated at room temperature for 60 minutes before the plate was read at 690 nm. Na^+K^+ATPase activity was calculated as the difference between the amount of phosphate produced in the presence and absence of Ouabain for each treatment.

Test [5] deals with T1, GLP-1R (Rattus norvegicus, UniProt P32301).
T1 construct: The choroid plexus from the lateral ventricles were dissected and placed in artificial CSF; from tissue; host or cells: rat choroid plexus explants (lateral ventricles)
T1 sequence (P32301 22-463): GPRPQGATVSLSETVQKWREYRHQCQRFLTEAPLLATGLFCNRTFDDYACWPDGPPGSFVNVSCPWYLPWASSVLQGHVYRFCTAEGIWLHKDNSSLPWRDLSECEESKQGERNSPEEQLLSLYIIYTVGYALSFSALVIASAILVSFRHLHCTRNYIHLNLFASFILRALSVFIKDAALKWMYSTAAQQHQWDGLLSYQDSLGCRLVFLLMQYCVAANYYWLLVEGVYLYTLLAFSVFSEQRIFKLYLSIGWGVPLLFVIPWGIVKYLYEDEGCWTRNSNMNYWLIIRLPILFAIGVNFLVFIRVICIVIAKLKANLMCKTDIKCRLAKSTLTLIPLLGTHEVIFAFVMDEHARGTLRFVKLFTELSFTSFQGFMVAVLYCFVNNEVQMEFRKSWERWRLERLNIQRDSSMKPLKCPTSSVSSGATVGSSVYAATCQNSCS
In words: GLP-1R mRNA (qPCR) and protein (western blot) in choroid plexus explants. The settings on record: 100 nM. The format is cell-based. As for the experimental part: (§2) The choroid plexus from the lateral ventricles were dissected and placed in artificial CSF (aCSF; 118 mM NaCl, 22 mM NaHCO3, 1.45 mM K2HPO4, 1 mM MgSO4, 1 mM CaCl2 and 10 mM glucose). To evaluate the effects of Exendin-4 on GLP-1R localisation within the cell, the explants were incubated with aCSF containing 100 nM Exendin-9 for 15 minutes or 100 nM Exendin-4 for 15 and 30 minutes. The explants were then fixed and stained following the protocol described below. To determine the effects of Exendin-4 on GLP-1R mRNA expression and protein levels the explants were incubated with aCSF containing 100 nM Exendin-4 for 3 and 6 hours, immediately frozen in liquid nitrogen and stored at −80° C.
For qPCR studies, hypothalamus, anterior pituitary and choroid plexus were dissected, immediately frozen in liquid nitrogen and stored at −80° C. Primary cultures of CPe cells were grown on 12 well inserts until confluency. Total RNA was extracted using the GenElute mammalian total RNA extraction kit (Sigma-Aldrich) and carried out according to the manufacturer's instructions. RNA was reverse transcribed to complementary DNA (cDNA) using a high capacity reverse transcription kit according to the manufacturer's protocol (Life Technologies). Taqman Gene Expression Assays (Life Technologies) were used to assess the expression of GLP-1R (assay number Rn00562406_m1). The 18S ribosomal subunit was used as an endogenous reference (4319413E) and samples were run in triplicate. The cycle number at which the particular sample crossed that threshold (Ct) was used to determine the levels of gene expression and ΔCt was calculated as the difference between the Ct (gene of interest) and the Ct (endogenous reference).
The hypothalamus, pituitary and choroid plexus were dissected, immediately frozen in liquid nitrogen and stored at −80° C. Tissues were homogenised in ice cold lysis buffer (20 mM Tris-HCl pH 7.4, 150 mM NaCl, 1 mM EDTA, 0.5 mM EGTA, 1% NP-40 containing protease inhibitor) and centrifuged at 13,000 g to remove cell debris. CPe cells were grown on 12 well inserts until confluency. Cell and tissue lysates (3 μg protein) were separated on an 8% SDS-PAGE gel. […] After washing in TBST the membranes were incubated with HRP-conjugated secondary antibody diluted in milk/TBST for 1 hour at room temperature. The bands were detected using ECL reagents (Amersham) and developed onto film.
(Quantitative PCR measures a nucleic acid by following its amplification.)

A short description of test [6]: ICP recordings in conscious rats (epidural pressure bolt). The note with it: for change in ICP from baseline: 30 and 60 minutes post treatment. The format is in vivo, rat. As for the experimental part:
This procedure and its validation were recently published as a methodological work and contains all technical and surgical detail (Uldall et al, 2014). In brief, rats were anaesthetised (2.7 ml/kg subcutaneous injection containing 1.25 mg/ml midazolam, 2.5 mg/ml fluanisone and 0.079 mg/ml fentanylcitrate). The rat was placed in a stereotactic frame (David Kopf Instruments) and a 2 cm-midline incision was performed on top of the skull and the bone was exposed by retracting the skin and soft tissue. A dental drill was used to induce 4 burr holes in the skull; one large hole was carefully drilled to expose the dura mater to enable placement of the epidural pressure bolt (C313G-3UP, PlasticsOne), with the cannula cut to be level with the base of the pedestal. The other 3 smaller holes were used to fit anchoring screws to the skull. The epidural pressure bolt and the anchoring screws were placed and aligned with the interior surface of the skull and secured using dental resin-cement (Clearfil SA Cement, RH Dental). The epidural pressure bolt and the transducer (DTX-Plus™, Argon Medical Devices) were then connected by a polyethylene tube filled with sterile water, ensuring the absence of air bubbles.
The pressure signal was visualised and recorded using Perisoft v.2.5.5 (Perimed). Correct ICP signal was confirmed by the transient elevation of ICP after jugular vein compression. When the ICP recording procedure was completed the epidural pressure bolt was closed with a bite proof cap (303DCFTX2, PlasticsOne) and the rat allowed to recover.
In order to perform recordings in conscious animals, rats were sedated with midazolam (2.5 mg/kg subcutaneous injection) and the transducer connected to the epidural pressure bolt. […] The ICP signal was again confirmed by jugular vein compression as described above. […]

Test [7] concerns the target T1, GLP-1R. Nature of the test: cAMP levels in choroid plexus explants. The format is cell-based. The note with it: 3 hours, vs aCSF. As to the method:
Histogram of mean±SEM of cAMP levels in choroid plexus explants in the 3 groups. The normal levels of cAMP observed with aCSF were increased after the addition of Exendin-4 (GLP-1R agonist) for 3 hours. Forskolin, an adenylate cyclase activator, acted as a positive control for cAMP levels;
(cAMP levels reflect the balance of adenylyl cyclase and phosphodiesterase activity.)

Test [8] has as its target T1, GLP-1R. Nature of the test: GLP-1R localisation by immunofluorescent staining in choroid plexus explants. It counts as cell-based. The settings on record: 100 nM. As for the experimental part:
as §2
For fluorescence labelling of choroid plexus explants and CPe cells, cells were first fixed in PBS containing 2% PFA and 2% glucose for 20 minutes at room temperature, washed in PBS and then permeabilised with methanol for 6 minutes at room temperature. The cells were stained using the same technique described above except that PBST was substituted with PBS.
Stained cells and sections were viewed under a Zeiss LSM 510 UV-confocal microscope (Carl Zeiss) and multiple Z-stack images were taken.

The subject of test [9] is rat choroid plexus explants. In words: Intracellular Na+ levels (Sodium Green) in choroid plexus explants. The format is cell-based. The note with it: artificial CSF+Exendin-4 for 3 hours vs no treatment. As for the experimental part:
Intracellular Na^+ levels were observed using Sodium Green (iNa^+) (life technologies). Briefly, rat choroid plexus explants were incubated with iNa^+ for 30 minutes before treatment with artificial CSF (no treatment) or artificial CSF+Exendin-4 for 3 hours. The fluorescence intensity directly correlates with the amount of intracellular Na^+.

Test [10] has as its target T1, GLP-1R. Nature of the test: cAMP assay in primary CPe cells. It counts as cell-based. As to the method: as §1
The effect of Exendin-4 on the downstream GLP-1R signalling pathway was assessed by measuring the levels of cAMP in CPe cells using the Amersham cAMP Biotrak Enzyme immunoassay (EIA) System (RPN 225, GE Healthcare Life Sciences). […] The cells were subsequently lysed and cAMP detected according to the manufacturer's instructions.

These results are taken from patent US11738067B2, “Elevated intracranial pressure treatment” (INVEX THERAPEUTICS LTD., priority 2014, dated 2023).

Entries after “also recorded” stand apart in the source; their conditions may differ. The star is where a group is joined. Myristoyl = CCCCCCCCCCCCCC(=O)*

With `CC(=O)Nc1nnc(S(N)(=O)=O)s1` [Acetazolamide], in test [1], the visual field grades result is listed as “improved from baseline”.

On to `CC1(C)O[C@@H]2[C@@H](CO[C@@]3(COS(N)(=O)=O)OC(C)(C)O[C@@H]23)O1` [Topiramate], for which, in test [1], the visual field grades result is reported as “improved from baseline”, the “therapeutic benefit on IIH versus acetazolamide control cohort” value is reported as “no therapeutic benefit on IIH was noted above the control cohort” and the weight loss result is “induce weight loss”.

Turning to `NS(=O)(=O)c1cc(C(=O)O)c(NCc2ccco2)cc1Cl` [furosemide], the “effects on ICP in IIH patients” value in test [2] is reported as “clinically beneficial effects on ICP”.

With `C[C@@H]1O[C@@H](O[C@H]2C[C@@H](O)[C@]3(CO)[C@H]4[C@H](O)C[C@]5(C)[C@@H](C6=CC(=O)OC6)CC[C@]5(O)[C@@H]4CC[C@]3(O)C2)[C@H](O)[C@H](O)[C@H]1O` [ouabain, Ouabain], the CSF secretion result with Na^+K^+ATPase [3] is reported as “totally inhibited”.

Take Exendin-4: the “Na+K+-ATPase activity compared to control (in words)” value in the test with Na^+K^+ATPase [4] (100 nM, 30 minutes, FIG. 10B) was “reduced”. In the test on Na^+K^+ATPase [4] (100 nM, 30 minutes, ouabain-sensitive), the “Na+K+ATPase specific phosphate production” value is on record as 39.3±9.4 % of control. For the same molecule, the “GLP-1R mRNA level” value is recorded as “significant increases” at GLP-1R [5] (3 hours, vs aCSF) and “returned to basal levels” on GLP-1R [5] (6 hours). Also, the GLP-1R protein level entry at GLP-1R [5] (3 hours, vs aCSF) was “significant increases”; on GLP-1R [5] (6 hours), “remained high”. Further, the “change in ICP from baseline” value in test [6] (1 μg/kg) is given as “lowered the ICP from baseline”; in [6] (3 μg/kg) it was “lowered the ICP from baseline”; in [6] (5 μg/kg), “greatest reduction”. Also, the “ICP over a 24 hour period” value in test [6] (5 μg/kg, 24 hours) was “remained reduced”. The “time to significant ICP reduction compared to saline” value in test [6] (conscious rats, 20 μg/kg subcutaneous) was at most 10 min. In test [6] (conscious rats, 20 μg/kg subcutaneous, 60 minutes recording), the “persistence of ICP reduction during recording” value is listed as “remained significantly lower for the rest of the recording; also recorded: lasted for the full 60 minutes”. Moreover, the “ICP reduction from baseline” value in [6] (conscious rats, 20 μg/kg subcutaneous, within 10 minutes) came out at 60.6±4.9%. Further, the entries for the “cAMP levels in choroid plexus explants” value on GLP-1R [7] and at GLP-1R [7] (listed as exendin-4) were “increased” and “increased levels of cAMP”, respectively. The “GLP-1R localisation after 15 minutes” value at GLP-1R [8] was “predominantly restricted to the apical surface; also recorded: relocation of the GLP-1R to the apical surface”. The “GLP-1R localisation after 30 minutes” value on GLP-1R [8] (30 minutes) is on record as “translocated back to the cytoplasm; also recorded: internalised”. The “intracellular Na+ levels (Sodium Green fluorescence)” value is given as “higher numbers of intense fluorescent choroid plexus epithelial cells with no treatment” in test [9] and “reduce intracellular sodium” in test [9] (listed as exendin-4). Also, at GLP-1R [10] (100 nM, 30 minutes, 1 mM IBMX), the “increase in cAMP compared to baseline” value turned out to be 2 fold. At GLP-1R [10] (FIG. 10A), the “cAMP levels in CPe cells compared to control (in words)” value is recorded as “significantly increased”.

Exendin-9: the “GLP-1R localisation after 15 minutes” value at GLP-1R [8] was “predominantly restricted to the apical surface; also recorded: restricted to the apical membrane”.

Consider “myristoylated protein kinase inhibitor (PKI)-(14-22)-amide (Myristoyl-SGRTGRRNA-NH2; UniProt P61925 14-22, looked up, fragment) [PKA inhibitor]”, for which the “effect on the Exendin-4 reduction in Na+K+ATPase activity” value in the test with Na^+K^+ATPase [4] (5 μM PKA inhibitor + 100 nM Exendin-4) is recorded as “abolish the Exendin-4 reduction”.
